Measurements as given in the supplement of paper PMC11451515.

Columns and labels:
Experiment in all cases: AUC of viability dose-response curve (% viability x log10 dose units); higher = less sensitive
Conditions in all cases: 48 h
NOMO1 = system: NOMO1
Procedure, shortened: (§1)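 Area under the curve was integrated by trapezoidal rule from a log-logistic fit of normalised viability, with curves exceeding full viability scaled and quality-control failures removed. The fit had four parameters over log10 doses. Viability came from CellTiter-Glo One luminescence, normalised per plate to DMSO and cell-free wells, after leukemia cells adapted to each medium (500 or 1000 cells/well, 1536-well plates) were exposed to library compounds in DMSO for 48 h at 37°C. The 11 threefold doses ran from 47 μM to 0.79 nM.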

P12-Ichikawa = system: P12-Ichikawa
Procedure, shortened: as §1

SEM cells = system: SEM cells
Procedure, shortened: as §1

[1] = RPMI 5 mM glucose + 10% dialyzed FBS

SMILES	AUC of viability dose-response curve (NOMO1; HPLM + 10% dialyzed FBS)	AUC of viability dose-response curve (NOMO1; RPMI 5 mM glucose + 10% FBS)	AUC of viability dose-response curve (NOMO1; [1])	AUC of viability dose-response curve (P12-Ichikawa; HPLM + 10% dialyzed FBS)	AUC of viability dose-response curve (P12-Ichikawa; RPMI 5 mM glucose + 10% FBS)	AUC of viability dose-response curve (P12-Ichikawa; [1])	AUC of viability dose-response curve (SEM cells; HPLM + 10% dialyzed FBS)	AUC of viability dose-response curve (SEM cells; RPMI 5 mM glucose + 10% FBS)	AUC of viability dose-response curve (SEM cells; [1])
FC(F)c1nc2ccccc2n1-c1nc(N2CCOCC2)nc(N2CCOCC2)n1	260	329	333	413	367	394	325	351	326
COc1cc2nccc(Oc3ccc(NC(=O)NC4CC4)c(Cl)c3)c2cc1C(N)=O	439	448	445	429	429	430	378	378	359
C/C=C1\C2C=C(C)CC1(N)c1ccc(=O)[nH]c1C2 (stereo not given)	463	467	465	471	447	442	442	458	463
COc1cc2c(cc1OC)CC(=O)N(CCCN(C)C[C@H]1Cc3cc(OC)c(OC)cc31)CC2.Cl	466	463	440	475	477	459	464	465	469
COc1ccc(-n2nc(C(N)=O)c3c2C(=O)N(c2ccc(N4CCCCC4=O)cc2)CC3)cc1	313	270	300	371	370	381	464	432	442
O=C(Nc1ccccc1-c1cn2c(CN3CCNCC3)csc2n1)c1cnc2ccccc2n1	381	350	391	388	369	361	364	366	310
Cc1[nH]c2ccccc2c1CCNCc1ccc(/C=C/C(=O)NO)cc1	300	311	312	298	292	304	265	251	273
CC[C@H](C)[N]1C=C(C)C2=C1C=C(C=C2C(=O)NC\C3=C(C)\C=C(\C)NC3=O)C4=CC=C(N=C4)N5CCNCC5	469	475	467	476	468	474	474	472	463
Cn1cnc2c1c(=O)[nH]c(=O)n2C	440	443	449	452	452	445	447	415	443
O=C(Nc1cc2cc[nH]c2cn1)c1ccccc1	366	385	401	360	414	386	359	335	364
COc1cc(OC)c(/C=C/[S+](=O)([O-])Cc2ccc(OC)c(NCC(=O)[O][Na])c2)c(OC)c1	315	309	278	271	269	257	287	269	249
CCn1c(-c2nonc2N)nc2cnc(Oc3cccc(NC(=O)c4ccc(OCCN5CCOCC5)cc4)c3)cc21	456	432	429	446	427	438	457	442	456
CN(C)C1=CC=C(C=C1)C(C2=CC=C(C=C2)N(C)C)=C/3\C=C/C(/C=C3)=[N+](C)C	225	232	234	253	233	240	226	218	211
CNC1CCC(N(Cc2cccc(-c3ccncc3)c2)C(=O)c2sc3c(F)ccc(F)c3c2Cl)CC1 (stereo not given)	453	470	466	467	466	463	455	464	445
COc1ccc(C(C)=O)c(O)c1	350	366	381	422	421	423	439	450	462
CNc1nccc(-c2cccnc2Oc2cc(C(=O)Nc3cccc(C(F)(F)F)c3)ccc2C)n1	458	458	461	467	462	468	466	460	461
CCOC(=O)C/1=C(O)/C(=O)N(CC2=CC=CC=C2)C1	459	446	462	462	466	468	463	469	468
OC1=CC2=C(C(=C1)O)C(=O)\C=C(/O2)C3=CC=CC=C3	450	453	456	441	443	446	429	410	423
CCC[C@H]1C[C@H](C(=O)N[C@@H]([C@@H]2O[C@@H](SC)[C@@H](O)[C@@H](O)[C@H]2O)[C@H](C)Cl)N(C)C1	459	430	439	465	455	467	447	450	447
COC(=O)[C@@H]1[C@H]2C[C@H]3c4[nH]c5ccccc5c4CCN3C[C@@H]2CC[C@@H]1O	356	325	350	373	378	402	440	441	451
O=C(c1ccc(Nc2nccc(-c3cc4ccccc4s3)n2)cc1)N1CCC(N2CCCC2)CC1	411	446	432	430	441	425	382	389	394
C\C1=C(\C=C(C#N)/C(=O)N1)C2=C[N]3C=CN=C3C=C2	407	393	405	419	394	375	383	424	411
O=C(O[C@H]1C[C@H]2CC[C@@H](C1)[N+]21CCCC1)C(O)(c1ccccc1)c1ccccc1.[Cl-]	472	462	467	461	464	470	460	437	449
CC(C)C1=C(O)C=C(O)C(=C1)C/2=N/NC(=O)N2C3=CC4=C(C=C3)[N](C)C=C4	259	254	250	335	304	307	248	241	259
C[C@]12CC[C@@H]3c4ccc(O)cc4C[C@@H](CCCCCCCCC[S+]([O-])CCCC(F)(F)C(F)(F)F)[C@H]3[C@@H]1CC[C@@H]2O (stereo not given in full)	428	470	429	464	462	455	475	411	459
Cc1cnc(-c2cc(N3CCN(C(=O)CC[S+](C)(=O)[O-])CC3)ncc2Cl)c(C)c1	404	470	455	466	475	469	426	453	427
CC(C)CC(=O)N[C@H](C(=O)N[C@H](C(=O)N[C@@H](CC(C)C)[C@@H](O)CC(=O)N[C@@H](C)C(=O)N[C@@H](CC(C)C)[C@@H](O)CC(=O)O)C(C)C)C(C)C	450	445	467	471	476	477	443	435	437
O=C(Nc1c(Cl)cncc1Cl)c1ccc(OC(F)F)c(OCC2CC2)c1	459	465	476	475	467	466	453	452	455
O=C(NC[C@H](O)CO)c1ccncc1Nc1ccc(I)cc1F	328	290	309	467	437	464	426	376	378
COc1ccc(C2CNC(=O)C2)cc1OC1CCCC1 (stereo not given)	465	460	465	470	472	450	455	453	448
